# Source: article PMC4335978, “Regulation of nitrite resistance of the cytochrome cbb3 oxidase by cytochrome c ScyA in Shewanella oneidensis” (MicrobiologyOpen, 2014)
# Experiments:
# [1] = target: T1, bd oxidase (cytochrome bd) (Shewanella oneidensis, UniProt Q8EC58); experiment: oxygen consumption (O2 electrode), membranes of Δcco strain; type: biochemical; details: ~70 μmol/L O2; ubiquinol-1 as electron donor; no added ScyA
# T1 construct: gene cydA; native cydABX complex in membrane preparations of S. oneidensis Δcco strain (cbb3 oxidase absent), not purified, no tag; with Cytochrome bd ubiquinol oxidase subunit II CydB; Cytochrome bd oxidase small subunit CydX
# T1 sequence (Q8EC58 1-518): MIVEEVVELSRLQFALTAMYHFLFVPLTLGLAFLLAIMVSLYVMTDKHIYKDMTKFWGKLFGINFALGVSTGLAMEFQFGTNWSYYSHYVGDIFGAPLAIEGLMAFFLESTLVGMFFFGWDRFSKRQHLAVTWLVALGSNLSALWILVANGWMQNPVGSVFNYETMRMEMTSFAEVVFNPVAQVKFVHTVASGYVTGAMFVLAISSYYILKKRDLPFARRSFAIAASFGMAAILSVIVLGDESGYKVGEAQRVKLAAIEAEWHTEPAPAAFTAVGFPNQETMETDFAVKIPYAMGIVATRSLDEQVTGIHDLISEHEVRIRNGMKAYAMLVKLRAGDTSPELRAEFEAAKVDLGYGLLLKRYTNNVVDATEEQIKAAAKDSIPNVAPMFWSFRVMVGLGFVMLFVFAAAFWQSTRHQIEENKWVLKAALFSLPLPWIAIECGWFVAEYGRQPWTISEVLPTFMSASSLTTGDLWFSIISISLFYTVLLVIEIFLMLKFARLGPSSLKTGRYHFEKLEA
# T1 sequence (Q8EC59 1-379 partner): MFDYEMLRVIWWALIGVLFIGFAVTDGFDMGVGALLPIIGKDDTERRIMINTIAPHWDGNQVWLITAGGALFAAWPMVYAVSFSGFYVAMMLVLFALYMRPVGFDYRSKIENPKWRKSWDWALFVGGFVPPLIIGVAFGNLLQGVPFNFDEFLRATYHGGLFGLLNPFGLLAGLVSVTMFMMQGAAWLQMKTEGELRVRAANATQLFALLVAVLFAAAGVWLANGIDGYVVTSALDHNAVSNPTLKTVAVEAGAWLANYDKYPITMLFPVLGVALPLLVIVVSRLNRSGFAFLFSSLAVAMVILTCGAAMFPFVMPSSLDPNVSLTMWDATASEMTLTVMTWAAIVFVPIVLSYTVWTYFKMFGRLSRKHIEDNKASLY
# T1 sequence (Q8EC60 1-38 partner): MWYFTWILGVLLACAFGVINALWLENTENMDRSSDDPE
# [2] = target: T2, cbb3-HCO (cytochrome cbb3 oxidase) (Shewanella oneidensis, UniProt Q8EEL5); experiment: oxygen consumption (O2 electrode), membranes of Δcyd strain; type: biochemical; details: ~70 μmol/L O2; ascorbate + TMPD as electron donor; no added ScyA
# T2 construct: gene ccoN; native ccoNOQP complex in membrane preparations of S. oneidensis Δcyd strain (bd oxidase absent), not purified, no tag; with Cbb3-type cytochrome c oxidase subunit II CcoO; Cbb3-type cytochrome c oxidase subunit III CcoP; Cbb3-type cytochrome c oxidase subunit IV CcoQ
# T2 sequence (Q8EEL5 1-478): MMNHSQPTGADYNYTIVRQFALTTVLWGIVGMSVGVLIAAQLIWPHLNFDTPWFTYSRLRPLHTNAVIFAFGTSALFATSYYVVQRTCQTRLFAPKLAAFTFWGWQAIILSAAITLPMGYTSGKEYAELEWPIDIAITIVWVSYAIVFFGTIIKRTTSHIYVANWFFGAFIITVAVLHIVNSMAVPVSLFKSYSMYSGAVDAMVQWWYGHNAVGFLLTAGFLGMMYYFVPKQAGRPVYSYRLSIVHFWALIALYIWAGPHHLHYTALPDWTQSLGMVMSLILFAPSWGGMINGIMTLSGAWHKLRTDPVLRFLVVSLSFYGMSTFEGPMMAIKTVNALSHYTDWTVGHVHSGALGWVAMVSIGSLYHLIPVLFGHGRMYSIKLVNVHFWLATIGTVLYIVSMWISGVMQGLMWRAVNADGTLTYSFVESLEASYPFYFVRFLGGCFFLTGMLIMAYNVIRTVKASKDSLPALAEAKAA
# T2 sequence (Q8EEL6 1-208 partner): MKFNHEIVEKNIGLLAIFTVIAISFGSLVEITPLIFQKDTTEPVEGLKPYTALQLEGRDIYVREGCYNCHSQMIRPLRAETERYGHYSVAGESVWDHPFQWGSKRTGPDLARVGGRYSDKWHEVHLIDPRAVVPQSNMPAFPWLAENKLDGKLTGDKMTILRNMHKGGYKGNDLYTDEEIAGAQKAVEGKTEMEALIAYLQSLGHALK
# T2 sequence (Q8EEL8 1-322 partner): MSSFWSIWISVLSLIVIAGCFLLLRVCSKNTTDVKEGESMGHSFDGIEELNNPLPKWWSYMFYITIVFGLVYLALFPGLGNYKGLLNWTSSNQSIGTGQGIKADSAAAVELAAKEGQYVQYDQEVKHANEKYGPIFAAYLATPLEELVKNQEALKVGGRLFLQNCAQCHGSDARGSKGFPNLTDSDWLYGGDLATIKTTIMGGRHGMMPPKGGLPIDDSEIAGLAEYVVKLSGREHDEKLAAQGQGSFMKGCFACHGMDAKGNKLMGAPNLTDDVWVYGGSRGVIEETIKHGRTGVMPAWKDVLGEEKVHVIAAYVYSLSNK
# T2 sequence (Q8EEL7 1-58 partner): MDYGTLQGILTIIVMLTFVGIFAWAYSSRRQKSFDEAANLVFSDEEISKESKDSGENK
compound,measurement,setting,value
O=NO [nitrite],IC50,[1],~0.18 µM
same,IC50,[2],~0.05 µM
